In paper PMC6540285, “Evaluation of Protein Kinase Inhibitors with PLK4 Cross-Over Potential in a Pre-Clinical Model of Cancer” (International Journal of Molecular Sciences, 2019):

Columns and labels:
FGFR3 G697C = FGFR3 G697C (Homo sapiens, UniProt P22607, G697C); assay: SelectScreen kinase profiling, LanthaScreen binding
PRKCA (PKC alpha) = PRKCA (PKC alpha) (Homo sapiens, UniProt P17252); assay: SelectScreen kinase profiling, ZLYTE; type: biochemical
AMPK A2/B1/G1 = AMPK A2/B1/G1 (Homo sapiens, UniProt P54646); assay: SelectScreen kinase profiling, ZLYTE; type: biochemical; conditions: AMPK A2/B1/G1, 10 µM
CHEK1 (CHK1) = CHEK1 (CHK1) (Homo sapiens, UniProt O14757); assay: SelectScreen kinase profiling, ZLYTE; type: biochemical
AMPK (A2/B2/G1) = AMPK (A2/B2/G1) (Homo sapiens, UniProt P54646); assay: SelectScreen kinase profiling, LanthaScreen binding
PRKACA (PKA) = PRKACA (PKA) (Homo sapiens, UniProt P17612); assay: SelectScreen kinase profiling, ZLYTE; type: biochemical
CSNK2A2 (CK2 alpha 2) = CSNK2A2 (CK2 alpha 2) (Homo sapiens, UniProt P19784); assay: SelectScreen kinase profiling, ZLYTE; type: biochemical
ADCK3 = ADCK3 (Homo sapiens, UniProt Q8NI60); assay: SelectScreen kinase profiling, LanthaScreen binding; conditions: ADCK3, 10 µM
Source text: Kinase Technology % Inhibition Avg Kinase Technology % Inhibition Avg
STK23 (MSSK1) ZLYTE 59 TGFBR1 (ALK5) LanthaScreen 85
STK24 (MST3) ZLYTE 85 TGFBR2 LanthaScreen 77
STK25 (YSK1) ZLYTE 45 TLK1 LanthaScreen 4
STK3 (MST2) ZLYTE 77 TLK2 LanthaScreen 33
STK32B (YANK2) LanthaScreen 61 TNIK LanthaScreen 15
STK32C (YANK3) LanthaScreen 62 TNK1 ZLYTE 94
STK33 LanthaScreen 81 TNK2 (ACK) LanthaScreen 71
STK38 (NDR) LanthaScreen 85 TTK LanthaScreen 54
STK38L (NDR2) LanthaScreen 59 TXK ZLYTE 94
STK39 (STLK3) LanthaScreen 38 TYK2 ZLYTE 99
STK4 (MST1) ZLYTE 93 TYRO3 (RSE) ZLYTE 92
SYK ZLYTE 98 ULK1 LanthaScreen 80
TAOK1 LanthaScreen 82 ULK2 LanthaScreen 56
TAOK2 (TAO1) ZLYTE 87 ULK3 LanthaScreen 5
TAOK3 (JIK) LanthaScreen 25 VRK2 LanthaScreen 32
TBK1 ZLYTE 99 WEE1 LanthaScreen 75
TEC LanthaScreen -9 WNK1 LanthaScreen 2
TEK (Tie2) ZLYTE 99 WNK2 LanthaScreen 1
TEK (TIE2) R849W LanthaScreen -5 WNK3 LanthaScreen 7
TEK (TIE2) Y897S ZLYTE 80 ZAK LanthaScreen 77
TESK1 LanthaScreen 37 ZAP70 ZLYTE 24
cleavage (Thermo Fisher Scientific, USA)

P450 2J2 = P450 2J2 (Homo sapiens, UniProt P51589)
LATS1 = LATS1 (Homo sapiens, UniProt O95835); assay: SelectScreen kinase profiling, LanthaScreen binding; conditions: LATS1, 10 µM
CYP2D6 = CYP2D6 (Homo sapiens, UniProt P10635); assay: SelectScreen P450 Vivid biochemical assay; conditions: 10000nM; substrate EOMCC
CDK7/cyclin H/MNAT1 = CDK7/cyclin H/MNAT1 (Homo sapiens, UniProt P50613); assay: SelectScreen kinase profiling, Adapta; type: biochemical; conditions: CDK7/cyclin H/MNAT1, 10 µM
FGFR2 N549H = FGFR2 N549H (Homo sapiens, UniProt P21802, N549H); assay: SelectScreen kinase profiling, ZLYTE; type: biochemical
ALK T1151_L1152insT = ALK T1151_L1152insT (Homo sapiens, UniProt Q9UM73, INS1151T); assay: SelectScreen kinase profiling, LanthaScreen binding
P450 2C8 = P450 2C8 (Homo sapiens, UniProt P10632); assay: SelectScreen P450 Vivid biochemical assay; conditions: 10000nM; substrate DBOMF
PRKCZ (PKC zeta) = PRKCZ (PKC zeta) (Homo sapiens, UniProt Q05513); assay: SelectScreen kinase profiling, ZLYTE; type: biochemical
GRK4 = GRK4 (Homo sapiens, UniProt P32298); assay: SelectScreen kinase profiling, ZLYTE; type: biochemical; conditions: GRK4, 10 µM
ABL1 = ABL1 (Homo sapiens, UniProt P00519); assay: SelectScreen kinase profiling, ZLYTE; type: biochemical; conditions: ABL1, 10 µM
MAPK9 (JNK2) = MAPK9 (JNK2) (Homo sapiens, UniProt P45984); assay: SelectScreen kinase profiling, ZLYTE; type: biochemical
ERN2 = ERN2 (Homo sapiens, UniProt Q76MJ5); assay: SelectScreen kinase profiling, LanthaScreen binding; conditions: ERN2, 10 µM
FGFR1 = FGFR1 (Homo sapiens, UniProt P11362); assay: SelectScreen kinase profiling, ZLYTE; type: biochemical; conditions: FGFR1, 10 µM
[1] = molecular target: PIK3CA/PIK3R3 (p110 alpha/p55 gamma) (Homo sapiens, UniProt P42336); assay: SelectScreen kinase profiling, Adapta; type: biochemical; conditions: PIK3CA/PIK3R3, 10 µM
RET V804E = RET V804E (Homo sapiens, UniProt P07949, V804E); assay: SelectScreen kinase profiling, ZLYTE; type: biochemical
MAPK15 (ERK7) = MAPK15 (ERK7) (Homo sapiens, UniProt Q8TD08); assay: SelectScreen kinase profiling, LanthaScreen binding
CAMK4 (CaMKIV) = CAMK4 (CaMKIV) (Homo sapiens, UniProt Q16566); assay: SelectScreen kinase profiling, ZLYTE; type: biochemical
CDK8/cyclin C = CDK8/cyclin C (Homo sapiens, UniProt P49336); assay: SelectScreen kinase profiling, LanthaScreen binding
MYLK4 = MYLK4 (Homo sapiens, UniProt Q86YV6); assay: as above; conditions: MYLK4, 10 µM
HIPK1 (Myak) = HIPK1 (Myak) (Homo sapiens, UniProt Q86Z02); assay: SelectScreen kinase profiling, ZLYTE; type: biochemical
MARK4 = MARK4 (Homo sapiens, UniProt Q96L34); assay: SelectScreen kinase profiling, ZLYTE; type: biochemical; conditions: MARK4, 10 µM
NEK8 = NEK8 (Homo sapiens, UniProt Q86SG6); assay: SelectScreen kinase profiling, LanthaScreen binding; conditions: NEK8, 10 µM

Sequence of AMPK A2/B1/G1 (P54646 whole entry): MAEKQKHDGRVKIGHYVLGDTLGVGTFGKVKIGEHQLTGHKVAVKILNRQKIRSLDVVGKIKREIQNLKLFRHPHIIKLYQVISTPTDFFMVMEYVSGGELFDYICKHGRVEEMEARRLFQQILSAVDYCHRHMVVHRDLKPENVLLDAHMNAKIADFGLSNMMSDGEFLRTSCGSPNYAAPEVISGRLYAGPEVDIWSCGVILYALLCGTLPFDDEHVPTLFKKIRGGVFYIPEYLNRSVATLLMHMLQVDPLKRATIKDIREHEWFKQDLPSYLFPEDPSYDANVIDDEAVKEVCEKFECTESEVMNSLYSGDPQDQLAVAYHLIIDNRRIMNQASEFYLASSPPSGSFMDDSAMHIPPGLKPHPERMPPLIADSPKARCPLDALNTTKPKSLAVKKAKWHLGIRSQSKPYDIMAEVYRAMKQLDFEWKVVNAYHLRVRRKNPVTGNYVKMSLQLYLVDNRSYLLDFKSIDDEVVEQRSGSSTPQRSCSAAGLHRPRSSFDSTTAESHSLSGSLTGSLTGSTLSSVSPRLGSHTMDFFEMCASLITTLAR
Sequence of AMPK A2/B1/G1 (Q9Y478 whole entry partner): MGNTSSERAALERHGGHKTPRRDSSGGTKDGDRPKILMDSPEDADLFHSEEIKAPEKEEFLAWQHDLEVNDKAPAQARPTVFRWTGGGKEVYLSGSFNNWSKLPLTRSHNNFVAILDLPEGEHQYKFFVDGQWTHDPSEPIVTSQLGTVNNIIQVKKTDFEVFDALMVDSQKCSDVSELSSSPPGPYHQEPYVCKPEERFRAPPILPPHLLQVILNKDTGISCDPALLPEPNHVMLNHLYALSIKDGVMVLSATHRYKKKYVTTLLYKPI
Sequence of AMPK A2/B1/G1 (P54619 whole entry partner): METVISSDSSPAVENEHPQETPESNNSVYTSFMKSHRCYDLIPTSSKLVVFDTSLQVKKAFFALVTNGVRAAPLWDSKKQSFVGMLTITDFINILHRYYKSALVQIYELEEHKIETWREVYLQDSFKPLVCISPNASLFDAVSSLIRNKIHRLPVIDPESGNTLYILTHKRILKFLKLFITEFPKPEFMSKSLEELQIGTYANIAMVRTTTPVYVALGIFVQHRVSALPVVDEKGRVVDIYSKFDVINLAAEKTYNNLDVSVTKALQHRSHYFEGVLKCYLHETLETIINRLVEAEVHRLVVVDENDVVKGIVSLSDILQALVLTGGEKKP
Sequence of AMPK (A2/B2/G1) (P54646 whole entry): as the sequence (P54646 whole entry) above
Sequence of AMPK (A2/B2/G1) (O43741 whole entry partner): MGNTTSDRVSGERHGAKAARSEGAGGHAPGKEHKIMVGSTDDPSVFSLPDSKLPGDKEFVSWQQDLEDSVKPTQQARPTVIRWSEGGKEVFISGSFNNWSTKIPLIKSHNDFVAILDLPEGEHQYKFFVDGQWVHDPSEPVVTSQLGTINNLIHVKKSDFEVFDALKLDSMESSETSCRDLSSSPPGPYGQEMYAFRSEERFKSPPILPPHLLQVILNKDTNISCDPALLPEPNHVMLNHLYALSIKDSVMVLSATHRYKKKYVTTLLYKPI
Sequence of AMPK (A2/B2/G1) (P54619 whole entry partner): as the sequence (P54619 whole entry partner) above
Sequence of ABL1 (P00519 whole entry): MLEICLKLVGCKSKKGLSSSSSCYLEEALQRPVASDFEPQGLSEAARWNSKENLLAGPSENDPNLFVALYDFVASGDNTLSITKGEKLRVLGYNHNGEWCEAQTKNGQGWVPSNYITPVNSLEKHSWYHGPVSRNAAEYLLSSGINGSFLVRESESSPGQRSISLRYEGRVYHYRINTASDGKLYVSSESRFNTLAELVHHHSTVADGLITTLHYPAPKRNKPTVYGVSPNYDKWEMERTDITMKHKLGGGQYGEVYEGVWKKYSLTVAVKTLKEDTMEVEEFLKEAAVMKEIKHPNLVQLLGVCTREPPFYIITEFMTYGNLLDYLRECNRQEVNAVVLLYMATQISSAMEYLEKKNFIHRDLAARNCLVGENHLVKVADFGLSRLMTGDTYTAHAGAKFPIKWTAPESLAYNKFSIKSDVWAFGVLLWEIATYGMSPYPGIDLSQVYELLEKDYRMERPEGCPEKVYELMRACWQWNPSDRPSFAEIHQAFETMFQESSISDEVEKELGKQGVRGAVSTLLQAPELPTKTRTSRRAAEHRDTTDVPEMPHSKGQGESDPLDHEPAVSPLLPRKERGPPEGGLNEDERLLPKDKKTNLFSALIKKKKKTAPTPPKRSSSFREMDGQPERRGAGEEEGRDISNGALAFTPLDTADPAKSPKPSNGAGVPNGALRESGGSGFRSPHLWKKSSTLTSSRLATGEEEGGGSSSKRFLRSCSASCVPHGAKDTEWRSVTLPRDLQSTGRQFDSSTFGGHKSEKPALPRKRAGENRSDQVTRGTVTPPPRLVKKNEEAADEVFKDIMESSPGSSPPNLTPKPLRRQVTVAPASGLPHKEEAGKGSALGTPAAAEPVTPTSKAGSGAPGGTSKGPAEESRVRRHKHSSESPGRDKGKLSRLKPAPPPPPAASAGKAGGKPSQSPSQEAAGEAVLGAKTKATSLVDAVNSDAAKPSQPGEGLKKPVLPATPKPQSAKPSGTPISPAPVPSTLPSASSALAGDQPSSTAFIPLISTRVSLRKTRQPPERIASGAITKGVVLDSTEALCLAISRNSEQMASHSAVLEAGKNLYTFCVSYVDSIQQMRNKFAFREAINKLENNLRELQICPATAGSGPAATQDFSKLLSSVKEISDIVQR
Sequence of ALK T1151_L1152insT (Q9UM73 with tags, fused parts or gaps INS1151T limits assumed): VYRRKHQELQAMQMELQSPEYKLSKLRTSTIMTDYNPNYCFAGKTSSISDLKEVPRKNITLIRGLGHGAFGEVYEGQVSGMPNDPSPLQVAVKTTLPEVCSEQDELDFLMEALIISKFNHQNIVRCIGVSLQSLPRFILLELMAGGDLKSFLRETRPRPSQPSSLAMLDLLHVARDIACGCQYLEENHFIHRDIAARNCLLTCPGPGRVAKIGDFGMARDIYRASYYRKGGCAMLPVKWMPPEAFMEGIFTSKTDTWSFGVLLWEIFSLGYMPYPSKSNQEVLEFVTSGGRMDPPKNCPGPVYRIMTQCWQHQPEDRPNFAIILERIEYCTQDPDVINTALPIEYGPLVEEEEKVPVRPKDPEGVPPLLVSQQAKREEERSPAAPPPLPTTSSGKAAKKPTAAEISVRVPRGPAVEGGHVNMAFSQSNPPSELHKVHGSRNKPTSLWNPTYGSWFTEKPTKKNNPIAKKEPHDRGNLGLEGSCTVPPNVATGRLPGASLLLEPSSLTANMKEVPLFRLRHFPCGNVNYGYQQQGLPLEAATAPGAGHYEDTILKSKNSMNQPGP
Sequence of CHEK1 (CHK1) (O14757 whole entry): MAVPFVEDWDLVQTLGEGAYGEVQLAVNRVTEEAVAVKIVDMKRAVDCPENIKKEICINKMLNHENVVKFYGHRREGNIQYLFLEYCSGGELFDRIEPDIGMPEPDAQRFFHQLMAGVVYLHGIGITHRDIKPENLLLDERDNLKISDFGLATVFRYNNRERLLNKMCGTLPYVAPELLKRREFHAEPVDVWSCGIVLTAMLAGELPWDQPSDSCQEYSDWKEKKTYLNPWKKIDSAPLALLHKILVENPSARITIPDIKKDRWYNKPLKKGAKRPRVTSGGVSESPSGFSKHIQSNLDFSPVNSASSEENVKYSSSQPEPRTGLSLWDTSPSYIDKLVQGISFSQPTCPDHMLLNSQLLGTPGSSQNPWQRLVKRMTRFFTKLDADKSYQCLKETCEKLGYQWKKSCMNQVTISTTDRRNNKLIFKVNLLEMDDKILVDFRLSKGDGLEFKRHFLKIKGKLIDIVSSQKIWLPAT
Sequence of HIPK1 (Myak) (Q86Z02 whole entry): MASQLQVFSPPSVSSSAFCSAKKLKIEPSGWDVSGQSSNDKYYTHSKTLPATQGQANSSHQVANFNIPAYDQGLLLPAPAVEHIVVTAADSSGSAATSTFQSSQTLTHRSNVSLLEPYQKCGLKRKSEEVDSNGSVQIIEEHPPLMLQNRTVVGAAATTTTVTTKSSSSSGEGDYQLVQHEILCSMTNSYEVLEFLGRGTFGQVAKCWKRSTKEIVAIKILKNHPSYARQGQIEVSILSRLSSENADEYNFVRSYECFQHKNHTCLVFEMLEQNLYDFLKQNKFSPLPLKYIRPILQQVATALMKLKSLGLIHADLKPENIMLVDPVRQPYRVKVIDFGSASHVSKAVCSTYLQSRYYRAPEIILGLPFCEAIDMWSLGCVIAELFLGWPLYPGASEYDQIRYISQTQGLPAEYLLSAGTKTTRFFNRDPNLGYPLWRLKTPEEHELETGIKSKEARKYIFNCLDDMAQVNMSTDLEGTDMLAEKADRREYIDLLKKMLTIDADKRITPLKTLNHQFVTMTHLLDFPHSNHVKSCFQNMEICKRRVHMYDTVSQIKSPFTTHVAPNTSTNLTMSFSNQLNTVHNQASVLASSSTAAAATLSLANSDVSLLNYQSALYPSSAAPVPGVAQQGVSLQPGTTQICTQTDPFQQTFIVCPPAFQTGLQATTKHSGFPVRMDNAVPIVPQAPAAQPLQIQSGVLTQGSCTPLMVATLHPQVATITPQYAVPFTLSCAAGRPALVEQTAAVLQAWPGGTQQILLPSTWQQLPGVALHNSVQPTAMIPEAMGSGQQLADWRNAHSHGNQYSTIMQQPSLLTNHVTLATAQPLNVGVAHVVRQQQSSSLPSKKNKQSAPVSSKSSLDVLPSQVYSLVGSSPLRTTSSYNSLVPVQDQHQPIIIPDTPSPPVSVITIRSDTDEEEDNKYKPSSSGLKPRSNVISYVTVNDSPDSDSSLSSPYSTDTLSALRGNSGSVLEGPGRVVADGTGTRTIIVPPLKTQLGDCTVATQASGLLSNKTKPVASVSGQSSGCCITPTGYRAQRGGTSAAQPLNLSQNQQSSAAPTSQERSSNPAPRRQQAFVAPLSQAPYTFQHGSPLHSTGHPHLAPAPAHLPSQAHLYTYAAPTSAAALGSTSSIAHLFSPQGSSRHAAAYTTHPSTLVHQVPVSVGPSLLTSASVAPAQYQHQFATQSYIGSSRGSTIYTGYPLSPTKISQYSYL

O=C(c1ccc(/C=C/c2n[nH]c3ccccc23)cc1)N1CCNCC1 [KW-2449]
inhibition at 10 µM (FGFR3 G697C): 78% | inhibition at 10 µM (PRKCA (PKC alpha)): 61% | inhibition at 10 µM (AMPK A2/B1/G1): 99% | inhibition at 10 µM (CHEK1 (CHK1)): 99% | inhibition at 10 µM (AMPK (A2/B2/G1)): 75% | inhibition at 10 µM (PRKACA (PKA)): 76% | inhibition at 10 µM (CSNK2A2 (CK2 alpha 2)): 38% | inhibition at 10 µM (ADCK3): -2% | IC50 (P450 2J2): 249 nM | inhibition at 10 µM (LATS1): -17% | % Inhibition 2D6 EOMCC (CYP2D6): 1% | inhibition at 10 µM (CDK7/cyclin H/MNAT1): 98% | inhibition at 10 µM (FGFR2 N549H): 94% | inhibition at 10 µM (ALK T1151_L1152insT): 26% | % Inhibition 2C8 DBOMF (P450 2C8): 33% | inhibition at 10 µM (PRKCZ (PKC zeta)): 9% | inhibition at 10 µM (GRK4): 61% | inhibition at 10 µM (ABL1): 100% | inhibition at 10 µM (MAPK9 (JNK2)): 87% | inhibition at 10 µM (ERN2): 74% | inhibition at 10 µM (FGFR1): 96% | inhibition at 10 µM [1]: 4% | inhibition at 10 µM (RET V804E): 94% | inhibition at 10 µM (MAPK15 (ERK7)): -49% | inhibition at 10 µM (CAMK4 (CaMKIV)): 52% | inhibition at 10 µM (CDK8/cyclin C): 38% | inhibition at 10 µM (MYLK4): 71% | inhibition at 10 µM (HIPK1 (Myak)): 70% | inhibition at 10 µM (MARK4): 101% | inhibition at 10 µM (NEK8): 30%
